Here are results for 81 compounds from US12606528B2, “Methods and materials for inhibiting NF-kB activity” (University of Pittsburgh - Of the Commonwealth System of …, priority 2019, dated 2026).

Structures are written as SMILES. Read-outs that look alike come from different tables or passages of the source.

The subject of the assay is NF-κB. Put plainly: NF-κB assay: THP1-NF-κB-LUC cells, LPS-stimulated secreted luciferase. Format: cell-based. The settings on record: read-out: IC50 (NF-κB assay). The gist of the method:
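THP1-NF-κB-LUC cells (25k/well) were pretreated with compounds for 2 h, then stimulated with LPS (10 ng/mL) for 18 h. Secreted luciferase was measured and normalized to vehicle, and IC50 was fitted from the concentration series.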

Setting [1] is: THP1-NF-κB-LUC cells, LPS-stimulated.
Where [2] appears, read: THP1-NF-κB-LUC cells, compounds 2 hours before LPS (10 ng/mL) for 18 hours, secreted luciferase.

`CCS(=O)(=O)c1oc(-c2ccc(F)cc2)nc1S(=O)(=O)c1ccc(Br)cc1` [BC18577]: under setting [1], the IC50 (as a rule, the concentration that inhibits the measured activity by half) was under 0.1 µM.

On to `CC(C)CSc1oc(-c2ccccc2)nc1S(=O)(=O)c1ccc(F)cc1` [BC18578], for which the IC50 under setting [1] lay in the range of 1 to 10 µM. On the same count and under the same terms, the value for `CC(C)CSc1oc(-c2ccccc2)nc1S(=O)(=O)c1ccc(Cl)cc1` [BC18579] was 1 to 10 µM; that for `Cc1ccc(-c2nc(S(=O)(=O)c3ccc(Cl)cc3)c(SCC(C)C)o2)cc1` [BC18580] was over 10 µM; that for `O=S(=O)(c1ccccc1)c1nc(-c2ccc(F)cc2)oc1SCc1ccc(F)cc1` [BC18581] was 1 to 10 µM.

For `Cc1ccc(S(=O)(=O)c2nc(-c3ccc(F)cc3)oc2SC(C)C)cc1` [BC18582], the IC50 under setting [1] was 1 to 10 µM. The same measure, in the same setting: in the case of `CC(C)Sc1oc(-c2ccc(F)cc2)nc1S(=O)(=O)c1ccc(F)cc1` [BC18583] it was 1 to 10 µM. The same measure, in the same setting: in the case of `CCCSc1oc(-c2ccc(F)cc2)nc1S(=O)(=O)c1ccc(Cl)cc1` [BC18584] it was over 10 µM; in that of `CC(C)Sc1oc(-c2ccc(F)cc2)nc1S(=O)(=O)c1ccc(Br)cc1` [BC18585], 1 to 10 µM; in that of `Cc1ccc(S(=O)(=O)c2nc(-c3ccc(F)cc3)oc2S(=O)(=O)C(C)C)cc1` [BC18586], under 0.1 µM. For `CC(C)CS(=O)(=O)c1oc(-c2ccc(F)cc2)nc1S(=O)(=O)c1ccc(F)cc1` [BC18587], the IC50 under setting [1] is under 0.1 µM. Still for that read-out and setting: in the case of `CCCS(=O)(=O)c1oc(-c2ccc(F)cc2)nc1S(=O)(=O)c1ccc(Br)cc1` [BC18588] it was under 0.1 µM. As to `Cc1cc2c(cc1S(=O)(=O)Nc1ccc(CCC(=O)O)cc1)OCC(=O)N2` [BC181300], the IC50 under setting [2] was over 10 µM. With `COc1cc(NS(=O)(=O)c2cc3c(cc2C)NC(=O)CO3)cc(OC)c1` [BC181301], the 50% inhibitory concentration (IC50) under setting [2] was over 10 µM. Consider `CCOc1ccc(NS(=O)(=O)c2cc3c(cc2C)NC(=O)CO3)cc1` [BC181302], for which the IC50 under setting [2] is under 0.1 µM. In the case of `CC(=O)c1cccc(NS(=O)(=O)c2cc3c(cc2C)NC(=O)CO3)c1` [BC181303], the IC50 under setting [2] is under 0.1 µM. For the compound `CCCCN(c1ccccc1)S(=O)(=O)c1cc2c(cc1C)NC(=O)CO2` [BC181304], the IC50 under setting [2] is over 10 µM. On the same count and under the same terms, the value for `Cc1ccc(NS(=O)(=O)c2cc3c(cc2C)NC(=O)CO3)cc1Cl` [BC181305] was under 0.1 µM; that for `CC(=O)N1CCOc2cc(S(=O)(=O)Nc3ccc(Br)c(C)c3)c(C)cc21` [BC181306] was 1 to 10 µM. As for `COc1cc(NS(=O)(=O)c2cc3c(cc2C)N(C(C)=O)CCO3)cc(OC)c1` [BC181307], the IC50 was over 10 µM. For `COc1cccc(NS(=O)(=O)c2cc3c(cc2C)N(C)CCO3)c1` [BC181308], the IC50 under setting [2] was over 10 µM.

Regarding `Cc1ccc(NS(=O)(=O)c2cc3c(cc2C)N(C)CCO3)cc1F` [BC181309], the IC50 under setting [2] is over 10 µM.

Consider `Cc1cc2c(cc1S(=O)(=O)Nc1ccccc1)OCC(=O)N2` [BC181310], for which the IC50 under setting [2] is under 0.1 µM.

`Cc1cc2c(cc1S(=O)(=O)Nc1cc(F)ccc1F)OCC(=O)N2` [BC181311]: the IC50 under setting [2] is under 0.1 µM.

For the compound `Cc1cc2c(cc1S(=O)(=O)Nc1cccc(C)c1C)OCC(=O)N2` [BC181312], under setting [2], the IC50 fell in the range of 1 to 10 µM.

`Cc1cc2c(cc1S(=O)(=O)Nc1c(C)cccc1C(C)C)OCC(=O)N2` [BC181313]: the IC50 under setting [2] was over 10 µM. The same measure, in the same setting: the value for `CSc1cccc(NS(=O)(=O)c2cc3c(cc2C)NC(=O)CO3)c1` [BC181314] was under 0.1 µM; that for `Cc1cc2c(cc1S(=O)(=O)Nc1ccc(CC(F)(F)F)cc1)OCC(=O)N2` [BC181315] was under 0.1 µM. For the compound `Cc1cc2c(cc1S(=O)(=O)N(C)c1ccc(Br)cc1)OCC(=O)N2` [BC181316], under setting [2], the IC50 is over 10 µM.

In the case of `COc1cccc(NS(=O)(=O)c2cc3c(cc2C)N(C(C)=O)CCO3)c1` [BC181317], the IC50 under setting [2] is over 10 µM. In the case of `CC(=O)N1CCOc2cc(S(=O)(=O)Nc3c(C)cccc3C)c(C)cc21` [BC181318], the IC50 under setting [2] is over 10 µM. As for `COc1ccc(NS(=O)(=O)c2cc3c(cc2C)N(C)CCO3)cc1` [BC181319], the IC50 under setting [2] was over 10 µM. Turning to `Cc1cccc(NS(=O)(=O)c2cc3c(cc2C)N(C)CCO3)c1` [BC181320], the IC50 under setting [2] was over 10 µM. The same measure, in the same setting: the value for `Cc1cc2c(cc1S(=O)(=O)Nc1cccc(Br)c1)OCC(=O)N2` [BC181321] was under 0.1 µM.

Consider `COc1ccc(NS(=O)(=O)c2cc3c(cc2C)NC(=O)CO3)cc1OC` [BC181322], for which, under setting [2], the IC50 was over 10 µM. On the same count and under the same terms, in the case of `Cc1cc2c(cc1S(=O)(=O)Nc1c(C)cccc1C)OCC(=O)N2` [BC181323] it was over 10 µM. For `COc1cc(NS(=O)(=O)c2cc3c(cc2C)NC(=O)CO3)cc(OC)c1OC` [BC181324], the IC50 under setting [2] was over 10 µM. For `CCc1cccc(CC)c1NS(=O)(=O)c1cc2c(cc1C)NC(=O)CO2` [BC181325], the IC50 under setting [2] was over 10 µM. `COc1ccc(C)cc1NS(=O)(=O)c1cc2c(cc1C)NC(=O)CO2` [BC181326]: under setting [2], the IC50 was over 10 µM. On the same count and under the same terms, in the case of `COc1ccc(N(C)S(=O)(=O)c2cc3c(cc2C)NC(=O)CO3)c(OC)c1` [BC181327] it was over 10 µM; in that of `COc1ccc(NS(=O)(=O)c2cc3c(cc2C)N(C(C)=O)CCO3)cc1` [BC181328], over 10 µM; in that of `CCc1ccc(NS(=O)(=O)c2cc3c(cc2C)N(C(C)=O)CCO3)cc1` [BC181329], 1 to 10 µM. Consider `Cc1cc2c(cc1S(=O)(=O)Nc1ccc(Cl)cc1)OCCN2C` [BC181330], for which the IC50 under setting [2] was 1 to 10 µM. Still for that read-out and setting: in the case of `Cc1cc2c(cc1S(=O)(=O)Nc1ccc(F)c(Cl)c1)OCC(=O)N2` [BC181331] it was under 0.1 µM. Still for that read-out and setting: the value for `CCNS(=O)(=O)c1cc2c(cc1C)NC(=O)CO2` [BC181332] was over 10 µM; that for `COc1ccc(NS(=O)(=O)c2cc3c(cc2C)NC(=O)CO3)cc1` [BC181333] was 1 to 10 µM; that for `CCOC(=O)c1cccc(NS(=O)(=O)c2cc3c(cc2C)NC(=O)CO3)c1` [BC181334] was 1 to 10 µM. Still for that read-out and setting: the value for `Cc1ccc(C)c(NS(=O)(=O)c2cc3c(cc2C)NC(=O)CO3)c1` [BC181335] was over 10 µM; that for `Cc1cc2c(cc1S(=O)(=O)Nc1ccc(C(C)C)cc1)OCC(=O)N2` [BC181336] was under 0.1 µM; that for `CCOc1ccc(OCC)c(NS(=O)(=O)c2cc3c(cc2C)NC(=O)CO3)c1` [BC181337] was over 10 µM. Consider `CCCN(c1ccccc1OC)S(=O)(=O)c1cc2c(cc1C)NC(=O)CO2` [BC181338], for which the IC50 under setting [2] was 1 to 10 µM.

Consider `CC(=O)N1CCOc2cc(S(=O)(=O)Nc3ccccc3Br)c(C)cc21` [BC181339], for which the IC50 under setting [2] is over 10 µM. Still for that read-out and setting: the value for `CCOc1ccc(NS(=O)(=O)c2cc3c(cc2C)N(C(C)=O)CCO3)cc1` [BC181340] was over 10 µM; that for `Cc1cc2c(cc1S(=O)(=O)Nc1ccc(F)cc1F)OCCN2C` [BC181341] was 1 to 10 µM.

Take `Cc1cc2c(cc1S(=O)(=O)Nc1ccc3c(c1)OCCO3)OCC(=O)N2` [BC181342]: the IC50 under setting [2] lay within 0.1 to 1 µM. On the same count and under the same terms, the value for `Cc1ccc(NS(=O)(=O)c2cc3c(cc2Cl)NC(=O)CO3)cc1F` [BC181343] was under 0.1 µM.

In the case of `Cc1cc2c(cc1S(=O)(=O)Nc1ccccc1Br)OCC(=O)N2` [BC181344], the IC50 under setting [2] lay within 0.1 to 1 µM. The same measure, in the same setting: the value for `CCN(c1ccccc1)S(=O)(=O)c1cc2c(cc1C)NC(=O)CO2` [BC181345] was over 10 µM; that for `Cc1ccc(NS(=O)(=O)c2cc3c(cc2C)NC(=O)CO3)c(C)c1` [BC181346] was over 10 µM; that for `CCc1cccc(NS(=O)(=O)c2cc3c(cc2C)NC(=O)CO3)c1` [BC181347] was 1 to 10 µM.

For `CCN(CC)c1ccc(NS(=O)(=O)c2cc3c(cc2C)NC(=O)CO3)c(C)c1` [BC181348], the IC50 under setting [2] is over 10 µM.

`CCN(c1ccc(OC)cc1)S(=O)(=O)c1cc2c(cc1C)NC(=O)CO2` [BC181349]: under setting [2], the IC50 was over 10 µM. The same measure, in the same setting: the value for `CC(=O)N1CCOc2cc(S(=O)(=O)Nc3cccc(Cl)c3)c(C)cc21` [BC181350] was 1 to 10 µM. Regarding `CC(=O)N1CCOc2cc(S(=O)(=O)Nc3ccccc3C)c(C)cc21` [BC181351], the IC50 was over 10 µM.

With `CCc1ccc(NS(=O)(=O)c2cc3c(cc2C)N(C)CCO3)cc1` [BC181352], the IC50 under setting [2] was over 10 µM.

Consider `Cc1ccc(NS(=O)(=O)c2cc3c(cc2C)NC(=O)CO3)cc1F` [BC181353], for which the IC50 under setting [2] is under 0.1 µM. Still for that read-out and setting: in the case of `Cc1cc2c(cc1S(=O)(=O)Nc1cccc(Cl)c1)OCC(=O)N2` [BC181354] it was under 0.1 µM.

With `Cc1cc2c(cc1S(=O)(=O)Nc1ccc(Cl)cc1)OCC(=O)N2` [BC181355], under setting [2], the IC50 is under 0.1 µM.

As to `CCc1ccccc1NS(=O)(=O)c1cc2c(cc1C)NC(=O)CO2` [BC181356], the IC50 under setting [2] is over 10 µM. On the same count and under the same terms, in the case of `COc1ccc(OC)c(NS(=O)(=O)c2cc3c(cc2C)NC(=O)CO3)c1` [BC181357] it was over 10 µM; in that of `COc1ccc(Cl)cc1NS(=O)(=O)c1cc2c(cc1C)NC(=O)CO2` [BC181358], over 10 µM; in that of `Cc1cccc(N(C)S(=O)(=O)c2cc3c(cc2C)NC(=O)CO3)c1` [BC181359], over 10 µM.

As for `COc1ccc(OC)c(N(C)S(=O)(=O)c2cc3c(cc2C)NC(=O)CO3)c1` [BC181360], the IC50 under setting [2] was over 10 µM. The same measure, in the same setting: in the case of `CC(=O)N1CCOc2cc(S(=O)(=O)Nc3ccc(Cl)cc3)c(C)cc21` [BC181361] it was 0.1 to 1 µM; in that of `CC(=O)N1CCOc2cc(S(=O)(=O)Nc3ccc(C(C)C)cc3)c(C)cc21` [BC181362], 1 to 10 µM. The same measure, in the same setting: the value for `Cc1cc2c(cc1S(=O)(=O)Nc1cccc(F)c1)OCCN2C` [BC181363] was over 10 µM; that for `Cc1cc2c(cc1S(=O)(=O)Nc1ccc(F)c(F)c1)OCC(=O)N2` [BC181364] was 0.1 to 1 µM; that for `Cc1cc2c(cc1S(=O)(=O)Nc1cc(C(F)(F)F)cc(C(F)(F)F)c1)OCC(=O)N2` [BC181365] was 1 to 10 µM. Regarding `Cc1ccc(Cl)cc1NS(=O)(=O)c1cc2c(cc1C)NC(=O)CO2` [BC181366], the IC50 under setting [2] lay in the range of 1 to 10 µM. As for `CCc1ccc(NS(=O)(=O)c2cc3c(cc2C)NC(=O)CO3)cc1` [BC181367], the IC50 under setting [2] is under 0.1 µM. Take `Cc1ccc(NS(=O)(=O)c2cc3c(cc2C)NC(=O)CO3)cc1C` [BC181368]: the IC50 under setting [2] was in the range of 1 to 10 µM.
